Experiment [1] deals with T1, rADH3 (amidohydrolase ADH3).
T1 construct: gene H7691_12935
The following applies: conditions not given here (as in the authors' earlier paper); cited from earlier work.

The test system of experiment [2] is rNA (N-acyl-L-amino acid amidohydrolase NA). The experiment is described as follows: HPLC of OTalpha formed, Michaelis-Menten nonlinear fit. The class given is biochemical, Stenotrophomonas sp. CW117. The following applies: PBS pH 7.2, 42 °C, 6 h; OTA 15-65 μg/L.

The values below come from publication PMC9430628 (Microbiology Spectrum, 2022).

In the case of `C[C@@H]1Cc2c(Cl)cc(C(=O)N[C@@H](Cc3ccccc3)C(=O)O)c(O)c2C(=O)O1` [Ochratoxin A], the figures for the Michaelis-Menten constant (Km) in experiment [1] and in experiment [2] were 0.039 µM and 3.8 µM, respectively.

As a reminder, the Km is the concentration of substrate that gives half-maximal velocity.
